Where two headings read alike, the source gives them in different places.
How the values were obtained:
DNA-PK(h) = DNA-PK(h) (Homo sapiens, UniProt P78527); assay: Evaluation of inhibitory activity against DNA-PK (HTRF kinase assay, GST-cMyc-p53 substrate); assay type: biochemical; settings: for inhibition at 0.01 µM: compound concentration 0.01 μM, read-out: EXP_VALUE(% Inhibition) DNA-PK(h) 0.01 μM; for inhibition at 0.1 µM: read-out: EXP_VALUE(% Inhibition) DNA-PK(h) 0.1 μM
Procedure: <Experimental Example 2> Evaluation of Inhibitory Activity Properties Against DNA-PK
The following experiments were performed to verify the inhibitory activity against DNA-PK with regard to each of the compounds of Examples 1 to 441 according to the present invention.
DNA-PK(h) was subjected to an isothermal treatment in an assay buffer comprising […] GST-cMyc-p53 and Mg/ATP (at a concentration as required). The reaction was initiated by the addition of a Mg/ATP mixture, and after incubation for 30 minutes at room temperature, a stop solution comprising EDTA was added to stop the reaction. A detection buffer comprising d2-labelled anti-GST monoclonal antibody and Europium-labelled anti-phospho Ser15 antibody for phosphorylated p53 was added. A plate was read in a time-resolved fluorescence mode and a homogeneous time-resolved fluorescence (HTRF) signal was determined according to HTRF=10000×(Em 665 nm/Em 620 nm).

[1] = biological target: PI3K-δ (PI3K(p1108/p857) (h)) (Homo sapiens, UniProt O00329); assay: Evaluation of inhibitory activity against PI3K-δ (HTRF kinase assay); assay type: biochemical; settings: for inhibition at 0.01 µM: compound concentration 0.01 μM, read-out: EXP_VALUE(% Inhibition) PI3K-δ 0.01 μM; for inhibition at 0.1 µM: read-out: EXP_VALUE(% Inhibition) PI3K-δ 0.1 μM
PI3K-δ (PI3K(p1108/p857) (h)), sequence (O00329 whole entry): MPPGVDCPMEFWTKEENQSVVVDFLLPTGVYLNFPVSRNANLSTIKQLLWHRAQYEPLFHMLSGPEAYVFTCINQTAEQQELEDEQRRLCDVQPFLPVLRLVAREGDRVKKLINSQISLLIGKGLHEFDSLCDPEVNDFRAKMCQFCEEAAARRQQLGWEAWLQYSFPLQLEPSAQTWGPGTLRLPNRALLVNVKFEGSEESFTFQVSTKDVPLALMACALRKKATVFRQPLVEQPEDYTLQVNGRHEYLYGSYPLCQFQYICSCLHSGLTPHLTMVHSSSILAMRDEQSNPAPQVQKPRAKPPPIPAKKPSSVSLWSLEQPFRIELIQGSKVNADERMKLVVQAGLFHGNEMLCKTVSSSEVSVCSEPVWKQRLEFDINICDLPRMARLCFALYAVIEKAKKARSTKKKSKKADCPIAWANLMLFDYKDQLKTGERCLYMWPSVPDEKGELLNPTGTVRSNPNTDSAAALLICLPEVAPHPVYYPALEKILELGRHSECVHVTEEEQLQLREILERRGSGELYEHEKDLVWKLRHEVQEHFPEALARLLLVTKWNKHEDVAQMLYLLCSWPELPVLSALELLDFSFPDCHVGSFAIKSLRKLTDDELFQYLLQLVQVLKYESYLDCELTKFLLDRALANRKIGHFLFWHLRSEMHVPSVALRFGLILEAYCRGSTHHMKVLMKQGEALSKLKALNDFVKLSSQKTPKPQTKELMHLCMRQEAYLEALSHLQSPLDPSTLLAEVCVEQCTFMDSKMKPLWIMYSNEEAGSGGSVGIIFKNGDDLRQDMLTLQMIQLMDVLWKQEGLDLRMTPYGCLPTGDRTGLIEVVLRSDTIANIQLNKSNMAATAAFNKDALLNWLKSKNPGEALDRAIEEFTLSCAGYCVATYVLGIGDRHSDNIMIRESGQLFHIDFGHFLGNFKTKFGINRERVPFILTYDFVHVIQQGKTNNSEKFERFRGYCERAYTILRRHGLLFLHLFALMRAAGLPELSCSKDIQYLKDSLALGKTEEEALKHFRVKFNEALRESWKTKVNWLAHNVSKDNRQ
PI3K-δ (PI3K(p1108/p857) (h)), sequence (P27986 whole entry partner): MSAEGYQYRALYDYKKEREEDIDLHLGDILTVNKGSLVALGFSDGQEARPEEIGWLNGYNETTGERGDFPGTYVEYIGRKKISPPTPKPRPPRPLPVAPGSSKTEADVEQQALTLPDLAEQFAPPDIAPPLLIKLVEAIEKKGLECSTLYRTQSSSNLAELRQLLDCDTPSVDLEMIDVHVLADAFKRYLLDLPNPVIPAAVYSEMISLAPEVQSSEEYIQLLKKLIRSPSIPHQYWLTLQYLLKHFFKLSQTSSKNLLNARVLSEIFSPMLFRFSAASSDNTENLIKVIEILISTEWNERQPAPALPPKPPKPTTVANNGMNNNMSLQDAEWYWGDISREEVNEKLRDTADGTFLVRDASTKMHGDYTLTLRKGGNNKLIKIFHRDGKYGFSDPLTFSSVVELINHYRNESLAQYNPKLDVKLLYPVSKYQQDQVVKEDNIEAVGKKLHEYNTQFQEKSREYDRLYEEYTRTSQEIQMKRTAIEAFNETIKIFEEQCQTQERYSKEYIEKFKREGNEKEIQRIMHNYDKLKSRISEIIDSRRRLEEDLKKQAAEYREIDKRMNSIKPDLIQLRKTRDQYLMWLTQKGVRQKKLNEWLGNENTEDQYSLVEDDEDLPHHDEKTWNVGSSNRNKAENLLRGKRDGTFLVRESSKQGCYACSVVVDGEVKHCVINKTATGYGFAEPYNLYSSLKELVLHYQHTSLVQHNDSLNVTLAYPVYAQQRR
Procedure: <Experimental Example 1> Evaluation of Inhibitory Activity Properties Against PI3K-δ
The following experiments were performed to verify the inhibitory activity against PI3K-δ with regard to each of the compounds of Examples 1 to 441 according to the present invention.
PI3K(p1108/p857) (h) was incubated in assay buffer comprising 10 μM phosphatidylinositol-4,5-bisphosphate and Mg/ATP (at a concentration as required). The reaction was initiated by the addition of a Mg/ATP mixture, and after incubation for 30 minutes at room temperature, a stop solution comprising EDTA and phosphatidylinositol-3,4,5-triphosphate was added to stop the reaction and carry out biotinylation.
A detection buffer comprising Eu (europium)-labelled anti-GST monoclonal antibody, GST-tagged GRP1 PH domain and streptavidin-allophycocyanin was added. A plate was read in a time-resolved fluorescence mode and a homogeneous time-resolved fluorescence (HTRF) signal was determined according to HTRF=10000×(Em 665 nm/Em 620 nm).

Structure (SMILES)	inhibition at 0.01 µM (DNA-PK(h))	inhibition at 0.01 µM [1]	inhibition at 0.1 µM (DNA-PK(h); compound concentration 0.1 μM)	inhibition at 0.1 µM ([1]; compound concentration 0.1 μM)	inhibition at 0.1 µM (DNA-PK(h); compound at 0.1 μM)	inhibition at 0.1 µM ([1]; compound at 0.1 μM)
C[C@H](Nc1ncnc2[nH]ccc(=O)c12)c1c(Cl)c2cccc(-c3cc[nH]n3)c2c(=O)n1-c1ccccc1 [Example 226, (S)-4-((1-(4-chloro-1-oxo-2-phenyl-8-(1H-pyrazol-3-yl)-1,2-dihydroisoquinolin-3-yl)ethyl)amino)pyrido[2,3-d]pyrimidin-5(8H)-one]	56%	83%	–	–	–	–
C[C@H](Nc1ncnc2[nH]ccc(=O)c12)c1c(Cl)c2cccc(-c3ncccn3)c2c(=O)n1-c1ccccc1 [Example 35, (S)-4-((1-(4-chloro-1-oxo-2-phenyl-8-(pyrimidin-2-yl)-1,2-dihydroisoquinolin-3-yl)ethyl)amino)pyrido[2,3-d]pyrimidin-5(8H)-one]	7%	21%	–	–	–	–
C[C@H](Nc1ncnc2[nH]ccc(=O)c12)c1c(Cl)c2cccc(-c3cnc(C(C)(C)O)nc3)c2c(=O)n1-c1ccccc1 [Example 26, (S)-4-((1-(4-chloro-8-(2-(2-hydroxypropan-2-yl)pyrimidin-5-yl)-1-oxo-2-phenyl-1,2-dihydroisoquinolin-3-yl)ethyl)amino)pyrido[2,3-d]pyrimidin-5(8H)-one]	66%	92%	–	–	–	–
Cc1cc(-c2cccc3c(Cl)c([C@H](C)Nc4ncnc5[nH]ccc(=O)c45)n(-c4ccccc4)c(=O)c23)cnc1O [Example 58, (S)-4-((1-(4-chloro-8-(6-hydroxy-5-methylpyridin-3-yl)-1-oxo-2-phenyl-1,2-dihydroisoquinolin-3-yl)ethyl)amino)pyrido[2,3-d]pyrimidin-5(8H)-one]	87%	95%	–	–	–	–
C[C@H](Nc1ncnc2[nH]ccc(=O)c12)c1c(Cl)c2cccc(C(=O)NC(C)(C)CO)c2c(=O)n1-c1ccccc1 [Example 284, (S)-4-chloro-N-(1-hydroxy-2-methylpropan-2-yl)-1-oxo-3-(1-((5-oxo-5,8-dihydropyrido[2,3-d]pyrimidin-4-yl)amino)ethyl)-2-phenyl-1,2-dihydroisoquinoline-8-carboxamide]	10%	25%	–	–	–	–
CCOC(=O)c1cccc2c(Cl)c([C@H](C)Nc3ncnc4[nH]ccc(=O)c34)n(-c3ccccc3)c(=O)c12 [Example 292, ethyl(S)-4-chloro-1-oxo-3-(1-((5-oxo-5,8-dihydropyrido[2,3-d]pyrimidin-4-yl)amino)ethyl)-2-phenyl-1,2-dihydroisoquinoline-8-carboxylate]	79%	99%	99%	112%	–	–
CC(C)S(=O)(=O)c1cccc2c(Cl)c([C@H](C)Nc3ncnc4[nH]ccc(=O)c34)n(-c3ccccc3)c(=O)c12 [Example 416, (S)-4-((1-(4-chloro-8-(isopropylsulfonyl)-1-oxo-2-phenyl-1,2-dihydroisoquinolin-3-yl)ethyl)amino)pyrido[2,3-d]pyrimidin-5(8H)-one]	–	–	–	–	52%	13%
C[C@H](Nc1ncnc2[nH]ccc(=O)c12)c1c(Cl)c2cccc(-c3cc(F)ccc3Cl)c2c(=O)n1-c1ccccc1 [Example 107, (S)-4-((1-(4-chloro-8-(2-chloro-5-fluorophenyl)-1-oxo-2-phenyl-1,2-dihydroisoquinolin-3-yl)ethyl)amino)pyrido[2,3-d]pyrimidin-5(8H)-one]	24%	59%	54%	91%	–	–
C[C@H](Nc1ncnc2[nH]ccc(=O)c12)c1c(Cl)c2cccc(-c3ccc(C4CC4)cc3)c2c(=O)n1-c1ccccc1 [Example 141, (S)-4-((1-(4-chloro-8-(4-cyclopropylphenyl)-1-oxo-2-phenyl-1,2-dihydroisoquinolin-3-yl)ethyl)amino)pyrido[2,3-d]pyrimidin-5(8H)-one]	31%	39%	74%	79%	–	–
